Measurements from ChEMBL document CHEMBL1145159 (J Med Chem, 2005).
Where “and” joins values, the source holds several entries; their conditions need not be identical. Identical values can stand only once. Peptide text beside a SMILES is read from it.

Columns and labels:
[1] = Effective concentration against Nicotinic acetylcholine receptor alpha3-beta4 expressed in xenopus oocytes; type: cell-based; conditions: oocyte
[2] = Effective concentration against Nicotinic acetylcholine receptor alpha4-beta2 expressed in xenopus oocytes; type: cell-based; conditions: oocyte
[3] = molecular target: T1, Neuronal acetylcholine receptor; alpha2/beta4 (Homo sapiens, UniProt P30926+Q15822); experiment: Maximal response against Nicotinic acetylcholine receptor alpha2-beta4; type: protein-complex assay
[4] = Effective concentration against Nicotinic acetylcholine receptor alpha2-beta4 expressed in xenopus oocytes; type: cell-based; conditions: oocyte
[5] = Effective concentration against Nicotinic acetylcholine receptor alpha4-beta4 expressed in xenopus oocytes; type: cell-based; conditions: oocyte
[6] = molecular target: T1, Neuronal acetylcholine receptor; alpha2/beta4; experiment: Maximal response against Nicotinic acetylcholine receptor alpha2-beta4 expressed in HEK293 cells; type: cell-based
[7] = molecular target: Neuronal acetylcholine receptor subunit alpha-7 (Rattus norvegicus) (UniProt Q05941); experiment: Maximal response against Nicotinic acetylcholine receptor alpha 7
[8] = molecular target: T2, Neuronal acetylcholine receptor; alpha4/beta2 (Homo sapiens, UniProt P17787+P43681); experiment: Maximal response against Nicotinic acetylcholine receptor alpha4-beta2 expressed in HEK293 cells; type: cell-based
[9] = molecular target: T2, Neuronal acetylcholine receptor; alpha4/beta2; experiment: Maximal response against Nicotinic acetylcholine receptor alpha4-beta2; type: protein-complex assay
[10] = molecular target: T3, Neuronal acetylcholine receptor; alpha4/beta4 (Homo sapiens, UniProt P30926+P43681); experiment: Maximal response against Nicotinic acetylcholine receptor alpha4-beta4; type: protein-complex assay
[11] = molecular target: T4, Neuronal acetylcholine receptor; alpha3/beta2 (Homo sapiens, UniProt P17787+P32297); experiment: Maximal response against Nicotinic acetylcholine receptor alpha3-beta2 expressed in HEK293 cells; type: cell-based
[12] = molecular target: T5, Neuronal acetylcholine receptor; alpha3/beta4 (Homo sapiens, UniProt P30926+P32297); experiment: Maximal response against Nicotinic acetylcholine receptor alpha3-beta4; type: protein-complex assay
[13] = molecular target: T2, Neuronal acetylcholine receptor; alpha4/beta2; experiment: (§1) Inhibitory concentration against Nicotinic acetylcholine receptor alpha4-beta2; type: protein-complex assay
[14] = molecular target: T4, Neuronal acetylcholine receptor; alpha3/beta2; experiment: Maximal response against Nicotinic acetylcholine receptor alpha3-beta2; type: protein-complex assay
[15] = molecular target: T4, Neuronal acetylcholine receptor; alpha3/beta2; experiment: Effective concentration against Nicotinic acetylcholine receptor alpha3-beta2 expressed in xenopus oocytes; type: cell-based, Oocyte
[16] = molecular target: T6, Neuronal acetylcholine receptor subunit alpha-7 (Homo sapiens, UniProt P36544); experiment: Effective concentration against Nicotinic acetylcholine receptor alpha 7
[17] = molecular target: T2, Neuronal acetylcholine receptor; alpha4/beta2; experiment: as §1; type: protein-complex assay; remark: listed apart in the source
[18] = molecular target: T6, Neuronal acetylcholine receptor subunit alpha-7; experiment: Inhibitory concentration against Nicotinic acetylcholine receptor alpha 7
[19] = molecular target: T4, Neuronal acetylcholine receptor; alpha3/beta2; experiment: Inhibitory concentration against Nicotinic acetylcholine receptor alpha3-beta2; type: protein-complex assay
[20] = molecular target: T5, Neuronal acetylcholine receptor; alpha3/beta4; experiment: Inhibitory concentration against Nicotinic acetylcholine receptor alpha3-beta4; type: protein-complex assay
[21] = molecular target: T2, Neuronal acetylcholine receptor; alpha4/beta2; experiment: Effective concentration against Nicotinic acetylcholine receptor alpha4-beta2; type: protein-complex assay
[22] = molecular target: T4, Neuronal acetylcholine receptor; alpha3/beta2; experiment: Effective concentration against Nicotinic acetylcholine receptor alpha3-beta2; type: protein-complex assay
[23] = molecular target: T1, Neuronal acetylcholine receptor; alpha2/beta4; experiment: Inhibitory concentration against Nicotinic acetylcholine receptor alpha2-beta4; type: protein-complex assay
[24] = molecular target: T5, Neuronal acetylcholine receptor; alpha3/beta4; experiment: Effective concentration against Nicotinic acetylcholine receptor alpha3-beta4; type: protein-complex assay
[25] = molecular target: T3, Neuronal acetylcholine receptor; alpha4/beta4; experiment: Effective concentration against Nicotinic acetylcholine receptor alpha4-beta4; type: protein-complex assay

Neuronal acetylcholine receptor subunit alpha-7 (Rattus norvegicus), sequence (Q05941 whole entry): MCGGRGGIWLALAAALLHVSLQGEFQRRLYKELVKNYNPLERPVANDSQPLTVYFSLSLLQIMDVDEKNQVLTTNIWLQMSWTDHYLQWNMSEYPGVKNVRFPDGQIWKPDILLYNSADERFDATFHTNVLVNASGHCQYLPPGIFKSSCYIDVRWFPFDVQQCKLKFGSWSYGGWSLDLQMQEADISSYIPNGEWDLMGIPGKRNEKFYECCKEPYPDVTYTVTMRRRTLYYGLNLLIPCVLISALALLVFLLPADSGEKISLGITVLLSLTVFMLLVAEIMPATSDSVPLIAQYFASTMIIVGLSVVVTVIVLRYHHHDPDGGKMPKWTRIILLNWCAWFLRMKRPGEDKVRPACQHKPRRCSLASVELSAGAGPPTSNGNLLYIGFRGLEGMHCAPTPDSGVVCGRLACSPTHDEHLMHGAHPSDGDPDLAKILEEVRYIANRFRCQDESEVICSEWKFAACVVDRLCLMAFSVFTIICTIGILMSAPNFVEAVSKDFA
T6 sequence (P36544 whole entry): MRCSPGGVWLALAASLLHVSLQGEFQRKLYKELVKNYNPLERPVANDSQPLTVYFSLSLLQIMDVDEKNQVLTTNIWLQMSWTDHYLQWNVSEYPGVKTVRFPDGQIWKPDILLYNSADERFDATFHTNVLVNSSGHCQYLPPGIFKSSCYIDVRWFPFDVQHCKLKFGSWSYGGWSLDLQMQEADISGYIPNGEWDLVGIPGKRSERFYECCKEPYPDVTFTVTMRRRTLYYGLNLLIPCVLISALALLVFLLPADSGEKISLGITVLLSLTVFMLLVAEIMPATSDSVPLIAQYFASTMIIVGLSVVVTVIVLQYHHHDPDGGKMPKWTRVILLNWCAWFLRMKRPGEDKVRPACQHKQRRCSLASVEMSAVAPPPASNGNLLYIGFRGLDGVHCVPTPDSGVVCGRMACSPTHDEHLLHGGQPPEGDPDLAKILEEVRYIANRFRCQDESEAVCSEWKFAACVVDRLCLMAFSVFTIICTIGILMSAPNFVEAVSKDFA
T3 sequence (P30926 whole entry): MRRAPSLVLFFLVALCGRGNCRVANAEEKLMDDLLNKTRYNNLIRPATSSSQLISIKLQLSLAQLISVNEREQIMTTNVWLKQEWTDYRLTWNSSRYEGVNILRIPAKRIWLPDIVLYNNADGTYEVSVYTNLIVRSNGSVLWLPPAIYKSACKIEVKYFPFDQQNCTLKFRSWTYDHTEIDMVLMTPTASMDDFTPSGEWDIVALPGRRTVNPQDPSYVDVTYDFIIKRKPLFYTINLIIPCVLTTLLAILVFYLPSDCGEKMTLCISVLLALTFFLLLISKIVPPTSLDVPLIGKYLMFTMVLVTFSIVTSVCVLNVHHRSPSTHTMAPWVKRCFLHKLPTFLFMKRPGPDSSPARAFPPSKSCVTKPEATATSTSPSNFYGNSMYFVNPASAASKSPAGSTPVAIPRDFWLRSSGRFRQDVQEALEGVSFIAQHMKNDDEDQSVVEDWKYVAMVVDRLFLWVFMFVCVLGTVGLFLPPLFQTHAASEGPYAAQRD
T3 sequence (P43681 whole entry): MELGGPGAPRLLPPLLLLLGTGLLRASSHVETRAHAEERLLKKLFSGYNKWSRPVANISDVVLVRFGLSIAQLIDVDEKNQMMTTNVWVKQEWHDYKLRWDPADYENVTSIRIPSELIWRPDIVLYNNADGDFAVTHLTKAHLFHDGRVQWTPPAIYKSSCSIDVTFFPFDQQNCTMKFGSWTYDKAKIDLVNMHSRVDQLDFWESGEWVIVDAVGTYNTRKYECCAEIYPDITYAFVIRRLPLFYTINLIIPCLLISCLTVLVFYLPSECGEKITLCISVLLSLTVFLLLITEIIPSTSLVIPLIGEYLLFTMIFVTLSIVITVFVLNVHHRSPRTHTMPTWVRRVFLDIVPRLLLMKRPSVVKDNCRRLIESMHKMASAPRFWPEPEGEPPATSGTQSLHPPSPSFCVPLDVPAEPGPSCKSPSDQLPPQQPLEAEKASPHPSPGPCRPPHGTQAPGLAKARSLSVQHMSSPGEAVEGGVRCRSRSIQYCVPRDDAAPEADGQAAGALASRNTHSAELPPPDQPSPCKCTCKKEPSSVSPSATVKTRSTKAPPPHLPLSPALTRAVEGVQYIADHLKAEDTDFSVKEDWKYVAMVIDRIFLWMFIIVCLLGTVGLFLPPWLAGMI
T1 sequence (P30926 whole entry): as the sequence (P30926 whole entry) above
T1 sequence (Q15822 whole entry): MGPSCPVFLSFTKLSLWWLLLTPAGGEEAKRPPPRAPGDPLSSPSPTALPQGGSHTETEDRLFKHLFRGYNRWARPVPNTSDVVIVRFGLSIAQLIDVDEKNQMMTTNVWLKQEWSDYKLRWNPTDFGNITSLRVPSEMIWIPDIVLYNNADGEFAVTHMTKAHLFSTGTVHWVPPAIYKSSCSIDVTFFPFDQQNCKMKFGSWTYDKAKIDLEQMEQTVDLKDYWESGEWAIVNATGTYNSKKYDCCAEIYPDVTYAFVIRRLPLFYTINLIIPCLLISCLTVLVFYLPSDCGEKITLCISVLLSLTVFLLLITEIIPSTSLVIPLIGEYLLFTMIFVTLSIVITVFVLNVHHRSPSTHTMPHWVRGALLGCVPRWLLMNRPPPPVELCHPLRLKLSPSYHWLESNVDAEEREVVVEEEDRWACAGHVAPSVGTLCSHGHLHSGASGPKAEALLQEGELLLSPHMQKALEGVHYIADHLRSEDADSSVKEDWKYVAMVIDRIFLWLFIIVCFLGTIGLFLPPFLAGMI
T5 sequence (P30926 whole entry): as the sequence (P30926 whole entry) above
T5 sequence (P32297 whole entry): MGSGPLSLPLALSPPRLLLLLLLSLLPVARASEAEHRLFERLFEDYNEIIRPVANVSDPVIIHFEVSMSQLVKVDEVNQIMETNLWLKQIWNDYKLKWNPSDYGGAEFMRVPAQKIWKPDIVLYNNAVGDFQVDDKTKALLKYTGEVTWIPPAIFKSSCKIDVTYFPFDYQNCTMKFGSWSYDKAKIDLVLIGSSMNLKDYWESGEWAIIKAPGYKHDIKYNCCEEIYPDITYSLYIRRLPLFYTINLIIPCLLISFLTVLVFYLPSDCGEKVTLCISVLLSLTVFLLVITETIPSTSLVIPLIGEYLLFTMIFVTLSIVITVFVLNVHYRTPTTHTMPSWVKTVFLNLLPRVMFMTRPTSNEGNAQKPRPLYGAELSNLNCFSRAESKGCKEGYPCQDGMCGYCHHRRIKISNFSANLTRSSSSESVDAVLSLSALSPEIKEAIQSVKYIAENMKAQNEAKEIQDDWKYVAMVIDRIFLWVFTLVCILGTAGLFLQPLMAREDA
T4 sequence (P17787 whole entry): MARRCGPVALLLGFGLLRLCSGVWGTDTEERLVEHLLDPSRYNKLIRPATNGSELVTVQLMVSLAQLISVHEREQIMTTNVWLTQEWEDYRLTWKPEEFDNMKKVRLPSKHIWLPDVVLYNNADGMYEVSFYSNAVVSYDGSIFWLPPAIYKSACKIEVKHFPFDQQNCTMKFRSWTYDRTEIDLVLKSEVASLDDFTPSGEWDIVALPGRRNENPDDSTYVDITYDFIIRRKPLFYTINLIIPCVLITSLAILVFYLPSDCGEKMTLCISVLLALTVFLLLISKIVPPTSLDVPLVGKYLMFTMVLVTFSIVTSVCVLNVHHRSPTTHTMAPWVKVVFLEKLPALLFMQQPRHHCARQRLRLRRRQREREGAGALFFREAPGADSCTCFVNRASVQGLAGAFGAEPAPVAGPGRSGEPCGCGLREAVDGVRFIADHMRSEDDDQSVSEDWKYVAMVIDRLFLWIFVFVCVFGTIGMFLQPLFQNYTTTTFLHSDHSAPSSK
T4 sequence (P32297 whole entry): as the sequence (P32297 whole entry) above
T2 sequence (P17787 whole entry): as the sequence (P17787 whole entry) above
T2 sequence (P43681 whole entry): as the sequence (P43681 whole entry) above

CN1CCC[C@H]1c1cccnc1 [NICOTINE]
EC50 [1]: 80 µM | EC50 [2]: 5.5 µM | Rmax [3]: 114% | EC50 [4]: 21 µM | EC50 [5]: 5 µM | Rmax [6]: 100% | Rmax [7]: 74% and 97% | Rmax [8]: 3.5% | Rmax [9]: 73% | Rmax [10]: 100% and 85% and 108% | Rmax [11]: 100%

c1cncc(C2CC3CCC2N3)c1 (stereo not drawn)
Rmax [12]: 61% | Rmax [9]: 112% | Rmax [10]: 147%

CC[N+](CC)(CC)CCOc1ccc(/C=C/c2ccccc2)cc1
Concentration [13]: 3.2 µM

c1cncc(OC[C@@H]2CCN2)c1
Rmax [12]: 100% | Rmax [7]: 100% | Rmax [9]: 185%

CCOc1cncc(/C=C/CCN)c1
Rmax [12]: 55% | Rmax [10]: 16%

Clc1ccc(OC[C@@H]2CCN2)cn1
Rmax [12]: 166% | Rmax [7]: 85% | Rmax [9]: 161%

CN(C)c1ccc(/C=C/C=C2\CCCN=C2c2cccnc2)cc1
Rmax [7]: 76% | Rmax [9]: 0%

O=c1c(I)ccc2n1C[C@@H]1CNC[C@H]2C1
Rmax [7]: 107% | Rmax [9]: 47% | Rmax [10]: 105%

O=c1cccc2n1C[C@@H]1CNC[C@H]2C1 [CYTISINICLINE]
EC50 [1]: 72 µM | EC50 [2]: 2.7 µM | Rmax [14]: 23 µM | Rmax [3]: 58% | EC50 [4]: 39 µM | EC50 [5]: 0.9 µM | Rmax [7]: 90% and 105% | Rmax [8]: 42% | EC50 [15]: 67 µM | Rmax [9]: 11% and 2% | Rmax [11]: 55%

CCCC1CCCNC(c2cccnc2)C1 (stereo not drawn)
Rmax [14]: 5% | Rmax [12]: 2% | EC50 [16]: 44 µM | Rmax [9]: 3%

C[C@H](NC(=O)[C@H](C)NC(=O)[C@H](CS)NC(=O)[C@H](C)NC(=O)[C@@H]1CCCN1C(=O)[C@H](Cc1c[nH]cn1)NC(=O)[C@H](CO)NC(=O)[C@H](CS)NC(=O)[C@H](CS)NC(=O)CNC(=O)CN)C(=O)N[C@@H](CC(N)=O)C(=O)N[C@@H](CC(N)=O)C(=O)N[C@@H](CCC(N)=O)C(=O)N[C@@H](CC(=O)O)C(=O)N[C@@H](Cc1ccc(O)cc1)C(=O)N[C@@H](CS)C(N)=O
IC50 [17]: 0.0003 µM | IC50 [18]: 0.0003 µM | IC50 [19]: 0.0003 µM | IC50 [20]: 0.0003 µM

CC[C@H](C)[C@H](NC(=O)[C@H](Cc1c[nH]cn1)NC(=O)[C@H](CCC(N)=O)NC(=O)[C@H](CC(N)=O)NC(=O)[C@H](CC(N)=O)NC(=O)CNC(=O)[C@H](C)NC(=O)[C@H](CS)NC(=O)[C@H](C)NC(=O)[C@@H]1CCCN1C(=O)[C@H](Cc1c[nH]cn1)NC(=O)[C@H](CO)NC(=O)[C@H](CS)NC(=O)[C@H](CS)NC(=O)CN)C(=O)N[C@@H](CS)C(N)=O
IC50 [17]: 0.0011 µM | IC50 [18]: 0.0011 µM | IC50 [19]: 0.0011 µM

Clc1ccc(OC[C@H]2CCN2)cn1
Rmax [12]: 116%

C[C@H](NC(=O)[C@H](Cc1ccccc1)NC(=O)[C@H](CS)NC(=O)[C@@H]1CCCN1C(=O)[C@@H]1CCCN1C(=O)[C@H](Cc1ccc(O)cc1)NC(=O)[C@H](CO)NC(=O)[C@H](CS)NC(=O)[C@H](CS)NC(=O)CN)C(=O)N[C@H](C(=O)N[C@@H](CC(N)=O)C(=O)N[C@@H](CO)C(=O)N[C@@H](CC(=O)O)C(=O)N[C@@H](Cc1ccc(O)cc1)C(=O)N[C@@H](CS)C(N)=O)[C@@H](C)O
IC50 [20]: > 0.75 µM

C[N+](C)(C)CCO
Rmax [7]: 90% and 100%

O=C1NCC2(CN3CCC2CC3)O1 (stereo not drawn)
EC50 [1]: > 1000 µM | EC50 [2]: > 2000 µM | Rmax [7]: 78% | EC50 [15]: > 1000 µM

CC(C)C[C@H](NC(=O)[C@H](C)NC(=O)[C@H](CS)NC(=O)[C@@H]1CCCN1C(=O)[C@@H]1CCCN1C(=O)[C@H](CC(C)C)NC(=O)[C@H](CO)NC(=O)[C@H](CS)NC(=O)[C@H](CS)NC(=O)CN)C(=O)N[C@@H](CO)C(=O)N[C@@H](CC(N)=O)C(=O)N1CCC[C@H]1C(=O)N[C@@H](CC(=O)O)C(=O)N[C@@H](Cc1ccc(O)cc1)C(=O)N[C@@H](CS)C(N)=O (H-GCCSLPPCALSNPDYC-NH2)
IC50 [18]: 0.061 µM | IC50 [19]: 0.061 µM

CN1C2CC[C@@H]1CC2c1ccnnc1 (stereo partly drawn)
EC50 [21]: 0.32 µM | EC50 [16]: 25 µM | EC50 [22]: 0.013 µM

CN1CCC[C@H]1COc1cnc(Cl)c(-c2ccc(Cl)cc2)c1
Concentration [13]: 0.96 µM | IC50 [18]: 8.5 µM | IC50 [20]: 9.2 µM

Cc1ncccc1OC[C@@H]1CCN1
Rmax [12]: < 15% | Rmax [7]: > 1000%

Clc1ccc(C2CC3CCC2N3)cn1 (stereo not drawn)
Rmax [6]: 115% | Rmax [7]: 97% | Rmax [8]: 117% | Rmax [10]: 99% and 85% | Rmax [11]: 163%

H-AGGSDRRCRWR-NH2
IC50 [18]: 0.441 µM

CN1CCC[C@H]1CCSc1ccc(O)cc1
Rmax [14]: 9% | Rmax [3]: 102% | Rmax [12]: 71% | EC50 [16]: > 10 µM | Rmax [9]: 13% | Rmax [10]: 62%

COc1cc2c(cn1)C1NCCC1CC2 (stereo not drawn)
Rmax [3]: 22% | Rmax [12]: 5% | EC50 [16]: > 300 µM | Rmax [9]: 8% | Rmax [10]: 44%

CC(NC(C)(C)C)C(=O)c1cccc(Cl)c1 (stereo not drawn) [BUPROPION]
IC50 [18]: 50 µM

c1cnc2c(c1)O[C@H]1CCN3CC[C@@]1(C2)C3 [DIANICLINE]
EC50 [21]: > 100 µM | EC50 [22]: > 100 µM | Rmax [9]: 19%

CNC1(C)C2CCC(C2)C1(C)C (stereo not drawn) [MECAMYLAMINE]
Concentration [13]: 0.78 µM | IC50 [18]: 12.3 µM | IC50 [19]: 0.28 µM | IC50 [23]: 3.1 µM and 16 µM

C[C@H](NC(=O)[C@H](Cc1ccccc1)NC(=O)[C@H](CS)NC(=O)[C@@H]1CCCN1C(=O)[C@@H]1CCCN1C(=O)[C@H](Cc1ccc(O)cc1)NC(=O)[C@H](CO)NC(=O)[C@H](CS)NC(=O)[C@H](CS)NC(=O)CN)C(=O)N[C@H](C(=O)N[C@@H](CC(N)=O)C(=O)N[C@@H](CO)C(=O)NCC(=O)N[C@@H](Cc1ccc(O)cc1)C(=O)N[C@@H](CS)C(N)=O)[C@@H](C)O
IC50 [20]: > 0.75 µM

O=C(NC1CN2CCC1CC2)c1ccc(-c2ccccn2)s1 (stereo not drawn)
EC50 [21]: > 10 µM | Rmax [7]: 100% | EC50 [24]: > 10 µM | EC50 [25]: > 10 µM

O=C(NC1CN2CCC1CC2)c1ccc(-c2ccsc2)s1 (stereo not drawn)
EC50 [21]: > 10 µM | Rmax [7]: 100% | EC50 [24]: > 10 µM | EC50 [25]: > 10 µM

CC(=O)CCN1C[C@@H]2C[C@H](C1)c1cccc(=O)n1C2
Rmax [12]: 11% | Rmax [7]: > 100% | Rmax [9]: 3%

O=c1c(Br)ccc2n1C[C@@H]1CNC[C@H]2C1
Rmax [7]: 100% | Rmax [9]: 23% | Rmax [10]: 70%

COc1ccc(/C=C2\CCCN=C2c2cccnc2)c(OC)c1 [GTS-21]
EC50 [21]: > 10 µM | Rmax [7]: 23% and 28% | EC50 [24]: > 10 µM | Rmax [9]: 0% | EC50 [25]: > 10 µM

Fc1ccc(C2CC3CCC2N3)cn1 (stereo not drawn)
Rmax [12]: 40% | Rmax [9]: 41% | Rmax [10]: 131%

CSCC[C@H](NC(=O)[C@H](CC(N)=O)NC(=O)[C@H](CS)NC(=O)[C@@H]1CCCN1C(=O)[C@H](CCCNC(=N)N)NC(=O)[C@H](CC(=O)O)NC(=O)[C@H](CO)NC(=O)[C@H](CS)NC(=O)[C@H](CS)NC(=O)CN)C(=O)N[C@@H](CC(N)=O)C(=O)N[C@@H](CC(N)=O)C(=O)N1CCC[C@H]1C(=O)N[C@@H](CC(=O)O)C(=O)N[C@@H](Cc1ccc(O)cc1)C(=O)N[C@@H](CS)C(N)=O (H-GCCSDRPCNMNNPDYC-NH2)
IC50 [18]: 0.03 µM | IC50 [19]: 0.03 µM | IC50 [20]: 0.03 µM

CCN1C[C@]2(COC(=O)c3ccccc3N3C(=O)C[C@H](C)C3=O)CC[C@H](OC)[C@@]34[C@@H]5C[C@H]6[C@H](OC)[C@@H]5[C@](O)(C[C@@H]6OC)[C@](O)([C@@H](OC)[C@H]23)[C@@H]14 [METHYLLYCACONITINE]
IC50 [18]: > 1 µM | IC50 [19]: > 1 µM | IC50 [23]: > 1 µM | IC50 [20]: > 1 µM

Clc1ccc(C2=CCC[C@H]3CCC2N3)cn1
Rmax [14]: 50% | Rmax [3]: 50% | Rmax [12]: 50% | Rmax [7]: 55% | Rmax [9]: 15% | Rmax [10]: 70%
